Assay results: EP0311383B1, “Monoclonal antibody to methamphetamine, preparation of the same, assay method and assay kit of methamphetamine” (UBE INDUSTRIES, LTD., priority 1987, dated 1989)
Like-named read-outs stand apart in the source and are kept apart here.

Tests used:
Format in all cases: binding, mouse
[1] = tested on: monoclonal antibody MA-13 (FERM BP-1495); test: Assay test II: competitive ELISA on immobilised MA-BSA, reactivities of the monoclonal antibody with various compounds
Method: (§1) First, in each analytic well of a 96-well U-bottomed ELISA plate was apportioned each 50 µl of an MA-BSA solution (2 µg/ml, dissolved in 0.05 M carbonate buffer of pH 9.8) which is the antigen for analysis prepared in Example 1, and the mixture was left to stand overnight at 4 °C (by such treatment, MA-BSA was adsorbed onto the surface of each analytic well).
(§2) Subsequently, after each analytic well was washed with a washing solution (PBS containing 0.05 % of Tween 20), each apportioned in each analytic well, left to stand at room temperature for 2 hours, these respective analytic wells were washed with the washing solution, and the culture supernatant in each culture well of the above culture plate was apportioned each in 50 µl into these respective analytic wells and left to stand at room temperature for 2 hours (for the negative control, a supernatant obtained by culturing similarly a mixture of mouse spleen lymphocytes and mouse myeloma cells before fusion was employed; on the other hand, for the positive control, the serum of mouse used for cell fusion in the present invention diluted to 100-fold with the washing liquor was used).
(§3) Next, each analytic well in the ELISA plate was washed, and each 50 µl of an alkaline phosphatase labeled antibody solution to mouse immunoglobulin was apportioned into each analytic well and left to stand at room temperature for 1 hour. And, after each analytic well in the ELISA plate was washed, each 100 µl of a sodium p-nitrophenylphosphate 6H₂O solution (1 mg/ml) was apportioned into each analytic well and, after the reaction at room temperature for 30 minutes, absorbance of each well at 405 nm was assayed by means of a spectrophotometer for microplate.
(§4) In order to determine the reaction specificities of the monoclonal antibodies such as MA-7, MA-13 and MA-15, reactivities with compounds different from MA such as AP (amphetamine), EP (ephedrin), ME (methylephedrin), MPA (methoxyphenamine), PT (phentermine), norEp (norephedrin), DBED (N,N′-dibenzylethylenediamine), OH-MA (p-hydroxymethamphetamine), OH-AP (p-hydroxyamphetamine), OH-EP (p-hydr oxyephedrin), OH-norEP (p-hydroxynorephedrin), Mes (mescaline), etc. were investigated according to the same ELISA method as described above in the step (c) (however, the reagent used for assay was made two-fold in amount, and a mixed solution of 50 µl of a solution of a compound diluted at multiple stages with the washing liquor and 50 µl of a monoclonal antibody solution was used in place of the hybridoma culture supernatant).
(§5) The reactivities of these antibodies with MA, AP, EP, ME, MPA, PT, norEp, DBED, OH-MA, OH-AP, OH-EP, OH-norEP and Mes are shown in Table 1 in terms of the reactive ratios relative to MA.

[2] = tested on: monoclonal antibody MA-15 (FERM BP-1496); test: as above
Method: as §1, §2, §3, §4, §5

[3] = tested on: monoclonal antibody MA-7 (FERM BP-1494); test: as above
Method: as §1, §2, §3, §4, §5

[4] = tested on: "enzyme-labeled antibody" (peroxidase-labeled monoclonal antibody MA-15); test: Reactivity of MA analogous compounds in the competitive enzyme immunoassay with MA bound protein and enzyme-labeled antibody (Example 15)
Method: The antibody in the "enzyme-labeled antibody" was obtained as the purified monoclonal antibody as shown in Reference example 2 by use of the MA-15 strain (FERM-P 1496).
First, […] of horseradish peroxidase was dissolved in 1 ml of distilled water and 200 µl of 0.1 M sodium periodate was added, followed by standing at room temperature for 30 minutes. After the enzyme solution was dialyzed at 4 °C overnight against 1 mM acetate buffer (pH 4.5), 100 µl of 0.2 M sodium carbonate buffer (pH 9.5) was added to adjust pH to 9.5. On the other hand, 8 mg of the monoclonal antibody (MA-15) dissolved in PBS was dialyzed at 4 °C overnight against 0.01 M sodium carbonate buffer (pH 9.5). The peroxidase and the monoclonal antibody thus obtained was mixed, left to stand at room temperature for 2 hours and a half, and sodium borohydride was added to the reaction mixture, followed by standing at 4 °C for 2 hours. The peroxidase-labeled monoclonal antibody thus obtained was dialyzed at 4 °C overnight against PBS, and this was diluted to 100-fold with PBS containing 0.01 % sodium ethylmercurithiosalicylate, apportioned each in 0.2 ml into a bottle and stored under lyophilization to provide the "enzyme-labeled antibody" (10 µg/bottle) which is the assay kit of MA. During assay of MA, 0.2 ml of distilled water was added into the bottle to dissolve well the lyophilized powder, and the solution was suitable diluted with PBS before use.
The MA-BSA which is the "MA bound protein" (bound product of MA and BSA, 5 µg/ml) was apportioned each in 100 µl into a 96-well flat-bottomed plate for immunoassay which is the solid phase support (microplate made of polystyrene produced by Nunc Co.), and left to stand under 4 °C overnight to immobilize MA-BSA onto each well. Next, for preventing non-specific adsorption of the "enzyme-labeled antibody" onto the plate, a washing solution containing 10 % calf serum (phosphate buffer of pH 7.4 containing 0.05 % of Tween 20) was placed and left to stand under room temperature for 30 minutes. Next, after washing with the same washing solution, 50 µl of the standard MA solution prepared by using the diluted urine of healthy man (produced by HYLAND DIAGNOSTIC CO.) to 5-fold with the same washing solution [(0 to 150 ng)/50 µl] and 50 µl of the "enzyme-labeled antibody" prepared in Example 1 were added at the same time into each well, followed by mixing and standing under room temperature for 30 minutes. […] Finally, each 50 µl of 2N sulfuric acid was apportioned to stop the enzymatic reaction, and absorbance of the solution after stopping of the reaction at 492 nm was assayed by use of a microplate photometer. […]

[5] = tested on: "antibody carrier" (monoclonal antibody to MA on polystyrene latex); test: Latex agglutination assay with MA carrier and antibody carrier, time until agglutination is seen with naked eyes; settings: same as at 0 ppm
Method: Each solution was quickly stirred with a stirring stick to carry out the reaction while moving the reaction plate, forward and backward, left and right, at a constant temperature (e.g. room temperature) for a certain period of time (e.g. 1 to 2 minutes), and the agglutination of each set formed by the reaction between the "antibody carrier" and the "MA carrier" is observed. At this time, by observing with comparison between the agglutination in the case of the set by use of the "standard MA solution" and the agglutination in the case of the set by use of the sample to be assayed, the MA content in the sample to be assayed can be known.
A mixture of 100 µl of MA-BSA solution (400 µg/ml) with 100 µl of a polystyrene latex which is the carrier (solid components 4.0 % by weight, particle size 0.8 µm, solvent PBS was shaken at 37 °C for 3 hours to have the MA-BSA carried physically on the polystyrene latex surface to obtain the "MA carrier".
The "MA carrier" prepared in Example 18 and the "antibody carrier " prepared in Example 19 were added dropwise each in 25 µl separately from each other onto the three sheets of reaction plates, and on the same plates were further added each 5 µl of the samples to be assayed with MA concentrations of 0.5 ppm and 1.0 ppm prepared by dilution with urine of healthy man (produced by HYLAND DIAGNOSTIC CO.) separately from each other, followed immediately by mixing of the "MA carrier", the "antibody carrier" and the sample to be assayed with a stirring stick.
In Example 20, samples to be assayed were prepared by use of methylephedrine (ME) in place of MA and the assay was carried out, following otherwise the same procedure.
In Example 20, samples to be assayed were prepared by use of ephedrine (EP) in place of MA and the assay was carried out, following otherwise the same procedure.

[6] = monoclonal antibody MA-13, compound diluted at multiple stages, MA = 1
[7] = monoclonal antibody MA-15, compound diluted at multiple stages, MA = 1
[8] = monoclonal antibody MA-7, compound diluted at multiple stages, MA = 1
[9] = concentration in sample 0.5 ppm
[10] = concentration in sample 1.0 ppm
[11] = enzyme-labeled antibody, according to Example 6, MA = 100

Structure (SMILES) | reactive ratios relative to MA [1, 6] | reactive ratios relative to MA [2, 7] | reactive ratios relative to MA [3, 8] | other results
CC(N)Cc1ccccc1 (centres unmarked) [AP, amphetamine] |  |  |  | reactive ratios relative to MA [1]: 0.0062; reactive ratios relative to MA [2]: 0.019; reactive ratios relative to MA [3]: 0.0051; Reactivity (%) [4]: 1.8%
c1ccc(CNCCNCc2ccccc2)cc1 [DBED, N,N′-dibenzylethylenediamine] | 0.23 | 0.0055 | 0.17 | 
CN[C@@H](C)[C@H](O)c1ccccc1 [EP, ephedrin] | 0.0025 | 0.0012 | 0.0018 | time until particles of polystyrene latex were observed with naked eyes to be agglutinated [5, 9]: ≤ 30 s; time until particles of polystyrene latex were observed with naked eyes to be agglutinated [5, 10]: ≤ 30 s
CN[C@@H](C)Cc1ccccc1 [MA, methamphetamine] | 1 | 1 | 1 | Reactivity (%) [4, 11]: 100%
CC([C@H](O)c1ccccc1)N(C)C (some centres unmarked) [ME, methylephedrin] | 0.028 | 0.016 | 0.022 | Reactivity (%) [4, 11]: 1.2%; time until particles of polystyrene latex were observed with naked eyes to be agglutinated [5, 9]: ≤ 30 s; time until particles of polystyrene latex were observed with naked eyes to be agglutinated [5, 10]: ≤ 30 s
CNC(C)Cc1ccccc1OC (centres unmarked) [MPA, methoxyphenamine] | 0.0037 | 0.0016 | 0.023 | Reactivity (%) [4, 11]: <0.2%
COc1cc(CCN)cc(OC)c1OC [Mes, mescaline] |  |  |  | reactive ratios relative to MA [1]: <0.00001; reactive ratios relative to MA [3]: <0.00001
CC(N)Cc1ccc(O)cc1 (centres unmarked) [OH-AP, p-hydroxyamphetamine] | 0.003 | <0.001 | <0.001 | reactive ratios relative to MA ([2]; monoclonal antibody MA-15, compound diluted at multiple stages, MA = 1, listed as p-hydroxyamphetamine): < 0.001; reactive ratios relative to MA ([3]; monoclonal antibody MA-7, compound diluted at multiple stages, MA = 1, listed as p-hydroxyamphetamine): < 0.001
CNC(C)C(O)c1ccc(O)cc1 (centres unmarked) [OH-EP, p-hydroxyephedrine] | <0.001 | 0.0031 | <0.001 | reactive ratios relative to MA ([1]; monoclonal antibody MA-13, compound diluted at multiple stages, MA = 1, listed as p-hydroxephedrine): < 0.001; reactive ratios relative to MA ([3]; monoclonal antibody MA-7, compound diluted at multiple stages, MA = 1, listed as p-hydroxyephedrine): < 0.001
CNC(C)Cc1ccc(O)cc1 (centres unmarked) [OH-MA, p-hydroxymethamphetamine] | 0.14 | 0.014 | 0.0039 | 
CC(N)C(O)c1ccc(O)cc1 (centres unmarked) [OH-norEP, p-hydroxynorephedrin] | <0.001 | <0.001 | <0.001 | reactive ratios relative to MA ([1]; monoclonal antibody MA-13, compound diluted at multiple stages, MA = 1, listed as p-hydroxynorephedrine): < 0.001; reactive ratios relative to MA ([2]; monoclonal antibody MA-15, compound diluted at multiple stages, MA = 1, listed as p-hydroxynorephedrine): < 0.001; reactive ratios relative to MA ([3]; monoclonal antibody MA-7, compound diluted at multiple stages, MA = 1, listed as p-hydroxynorephedrine): < 0.001
CC(C)(N)Cc1ccccc1 [PT, phentermine] | 0.12 | 0.0039 | 0.042 | 
CC(N)C(O)c1ccccc1 (centres unmarked) [norEP, norephedrin] | <0.001 | <0.001 | <0.001 | reactive ratios relative to MA ([1]; monoclonal antibody MA-13, compound diluted at multiple stages, MA = 1, listed as norephedrine): < 0.001; reactive ratios relative to MA ([2]; monoclonal antibody MA-15, compound diluted at multiple stages, MA = 1, listed as norephedrine): < 0.001; reactive ratios relative to MA ([3]; monoclonal antibody MA-7, compound diluted at multiple stages, MA = 1, listed as norephedrine): < 0.001
